Reference: patent US9284272B2, “Inhibitors of histone methyltransferase G9a” (AbbVie Inc., priority 2014, dated 2016)
“And” between values parts separate entries of the source, which are not always exact repeats. Identical values can stand only once. Like-named read-outs stand apart in the source and are kept apart here.

Key:
H3K9me2 = assay: Cellular immunostaining (In-Cell Western), H3K9Me2 antibody immunofluorescence in PC3 cells; assay type: cell-based, human; details: for H3K9me2 % inhibition, single well of triplicate / inhibition at 0.03 µM / inhibition at 0.1 µM / inhibition at 0.3 µM / inhibition at 1 µM / inhibition at 3 µM: 72 hours; for inhibition at 0.03 µM / inhibition at 0.1 µM / inhibition at 0.3 µM / inhibition at 1 µM / inhibition at 3 µM: Homo sapiens, PC-3, 72 h
Experimental: For comparison, the known G9a inhibitor UNC0638 (see structure in FIG. 1) was evaluated in this study concurrently.
Human PC3 cells (ATCC, Manassas, Va.) were grown in RPMI+10% Fetal Bovine Serum and plated at 5,000 cells per well in a 96-well plate. The following day compounds and DMSO controls were added in triplicate at the indicated concentrations. Cells were fixed following incubation at 37° C. for 72 hours with 10% formaldehyde and then permeabilized with 0.1% Triton X-100. Cells were then washed with PBS and blocked with 0.1% BSA/PBS solution. Mouse anti-H3K9me2 (1:200, AbCam #1220, Cambridge, Mass.) and rabbit anti-Histone H3 (1:500, Cell Signaling Technology #4499, Danvers, Mass.) primary antibodies in 0.3% BSA were then added together to each well and incubated overnight at 4° C. The following day cells were washed in PBS-T (PBS with 0.1% Tween) followed by addition of anti-mouse (IR800) and anti-rabbit (IR700) secondary antibodies (LI-COR Biosciences, Lincoln, Nebr.) and incubated for one hour at room temperature. Cells were then washed with PBS-T followed by PBS and liquid was removed from all wells. The plate was scanned using both the 700 nm (anti-rabbit detection) and 800 nm (anti-mouse detection) channels on the Odyssey Imaging System (LI-COR Biosciences, Lincoln, Nebr.). Data was quantified using the LI-COR imaging suite and graphed as % inhibition H3K9me2/total H3/well compared to DMSO control wells. Wells treated in triplicate were averaged for each indicated concentration and error bars represent the standard deviation (n=3).

[1] = test system: human peripheral blood mononucleated cells (PBMCs); assay: Viability of PBMCs (Caspase-Glo 3/7, CellTiter Glo); assay type: cell-based; details: 0-10 uM, 48 h
Experimental: Following treatment, Caspase 3/7 activity (i.e., a marker of apoptosis) was assessed by the Caspase-Glo 3/7 assay system (FIG. 7A), and cell viability was assessed by CellTiter Glo assay (FIG. 7B).

[2] = Cytotoxicity, CellTiter Glo; assay type: cell-based; details: human, MHH-65-1 cells, 7-day proliferation, neural crest derived lines
[3] = Cytotoxicity, CellTiter Glo; assay type: cell-based; details: human, CAPO-ES1 cells, 7-day proliferation, neural crest derived lines
[4] = Cytotoxicity, CellTiter Glo; assay type: cell-based; details: human, PA-1 cells, 7-day proliferation, neural crest derived lines
[5] = Cytotoxicity, CellTiter Glo; assay type: cell-based; details: human, SK-N-MC cells, 7-day proliferation, neural crest derived lines
[6] = Cytotoxicity, CellTiter Glo; assay type: cell-based; details: human, G-401 cells, 7-day proliferation, neural crest derived lines
[7] = Cytotoxicity, CellTiter Glo; assay type: cell-based; details: human, ZR7350 cells, 7-day proliferation, neural crest derived lines
[8] = Cytotoxicity, CellTiter Glo; assay type: cell-based; details: human, US2OS cells, 7-day proliferation, neural crest derived lines
[9] = Cytotoxicity, CellTiter Glo; assay type: cell-based; details: human, DaoY cells, 7-day proliferation, neural crest derived lines
in vitro = assay type: cell-based; details: PH-1; 7-day proliferation, neural crest derived lines; read-out: IC50 cytotoxicity
[10] = Cytotoxicity, CellTiter Glo; assay type: cell-based; details: human, TC-71 cells, 7-day proliferation, neural crest derived lines
[11] = Cytotoxicity, CellTiter Glo; assay type: cell-based; details: human, IMR-32 cells, 12-day proliferation, neural crest derived lines
[12] = Cytotoxicity, CellTiter Glo; assay type: cell-based; details: A-201 cells, 12-day proliferation, neural crest derived lines
[13] = Cytotoxicity, CellTiter Glo; assay type: cell-based; details: human, THP-1 cells, 5-day proliferation
[14] = Cytotoxicity, CellTiter Glo; assay type: cell-based; details: human, RS4;11 cells, 5-day proliferation
[15] = Cytotoxicity, CellTiter Glo; assay type: cell-based; details: human, RPMI8226 cells, 5-day proliferation
[16] = Cytotoxicity, CellTiter Glo; assay type: cell-based; details: human, OPM2 cells, 5-day proliferation
[17] = Cytotoxicity, CellTiter Glo; assay type: cell-based; details: human, L-363 cells, 5-day proliferation
[18] = Cytotoxicity, CellTiter Glo; assay type: cell-based; details: human, KMS12 cells, 5-day proliferation
[19] = Cytotoxicity, CellTiter Glo; assay type: cell-based; details: human, KMS11 cells, 5-day proliferation
[20] = Cytotoxicity, CellTiter Glo; assay type: cell-based; details: human, Kasume-1 cells, 5-day proliferation
[21] = Cytotoxicity, CellTiter Glo; assay type: cell-based; details: human, HL-60 cells, 5-day proliferation
[22] = Cytotoxicity, CellTiter Glo; assay type: cell-based; details: human, H929 cells, 5-day proliferation
[23] = Cytotoxicity, CellTiter Glo; assay type: cell-based; details: human, MV4;11 cells, 5-day proliferation
[24] = Cytotoxicity, CellTiter Glo; assay type: cell-based; details: human, K562 cells, 5-day proliferation
[25] = Cytotoxicity, CellTiter Glo; assay type: cell-based; details: human, 22RV1 cells, 5-day proliferation
[26] = Cytotoxicity, CellTiter Glo; assay type: cell-based; details: human, Calu6 cells, 5-day proliferation
[27] = Cytotoxicity, CellTiter Glo; assay type: cell-based; details: human, DU145 cells, 5-day proliferation
[28] = Cytotoxicity, CellTiter Glo; assay type: cell-based; details: human, LN229 cells, 5-day proliferation
[29] = Cytotoxicity, CellTiter Glo; assay type: cell-based; details: human, LNCap cells, 5-day proliferation
[30] = Cytotoxicity, CellTiter Glo; assay type: cell-based; details: human, SKBR3 cells, 5-day proliferation

For COc1cc2c(NC3CCN(C(C)C)CC3)nc(C3CCCCC3)nc2cc1OCCCN1CCCC1 [UNC0638, reference compound], the “reduction of cellular levels of H3K9Me2” value (H3K9me2; 3 μM) was about 50%, the “H3K9me2 % inhibition, single well of triplicate” value (from here on “H3K9me2 % inhibition”) (H3K9me2; 0.03 uM) was 17.8107% and 15.8006% and the “H3K9me2 % inhibition” value (H3K9me2; 0.1 uM) was 27.68% and 25.03%. For the same compound, the “H3K9me2 % inhibition” value (H3K9me2; 0.3 uM) was 41.05% and 40.37%, the “H3K9me2 % inhibition” value (H3K9me2; 1 uM) was 43.21% and 47.35% and the “H3K9me2 % inhibition” value (H3K9me2; 3 uM) was 48.22% and 49.38%. For the same compound, the inhibition at 0.03 µM (H3K9me2; 0.03 uM, n=3, read-out: H3K9me2 % inhibition, average) was 14.6%, the inhibition at 0.03 µM (H3K9me2; 0.03 uM, read-out: H3K9me2 % inhibition, single well of triplicate) was 10% and the inhibition at 0.1 µM (H3K9me2; 0.1 uM, n=3, read-out: H3K9me2 % inhibition, average) was 25.8%. It also gave an inhibition at 0.1 µM (H3K9me2; 0.1 uM, read-out: H3K9me2 % inhibition, single well of triplicate) of 24.6%, an inhibition at 0.3 µM (H3K9me2; 0.3 uM, n=3, read-out: H3K9me2 % inhibition, average) of 40.8% and an inhibition at 0.3 µM (H3K9me2; 0.3 uM, read-out: H3K9me2 % inhibition, single well of triplicate) of 41.1%. The inhibition at 1 µM (H3K9me2; 1 uM, n=3, read-out: H3K9me2 % inhibition, average) was 45.2%, the inhibition at 1 µM (H3K9me2; 1 uM, read-out: H3K9me2 % inhibition, single well of triplicate) was 44.9% and the inhibition at 3 µM (H3K9me2; 3 uM, n=3, read-out: H3K9me2 % inhibition, average) was 48.5%. For the same compound, the inhibition at 3 µM (H3K9me2; 3 uM, read-out: H3K9me2 % inhibition, single well of triplicate) was 47.8%, the “cell viability as measured by total histone H3” value (H3K9me2; versus no treatment) was “No difference in cell viability” and the “effect on PBMC viability (Caspase 3/7 activity and CellTiter Glo)” value [1] was “did at higher concentrations”. It also gave an IC50 at 7 day [2] of 1900 nM, an IC50 at 7 day [3] of 1200 nM and an IC50 at 7 day [4] of 200 nM. It also gave an IC50 at 7 day [5] of 200 nM, an IC50 at 7 day [6] of 400 nM and an IC50 at 7 day [7] of 1200 nM. It also gave an IC50 at 7 day [8] of 500 nM, an IC50 at 7 day [9] of 100 nM and an IC50 at 7 day (in vitro) of 4400 nM. For the same compound, the IC50 at 7 day [10] was 600 nM, the IC50 at 12 day [11] was 100 nM and the IC50 at 12 day [12] was 600 nM. For the same compound, the IC50 at 5 day [13] was 4900 nM, the IC50 at 5 day [14] was 3100 nM and the IC50 at 5 day [15] was 5100 nM. It also gave an IC50 at 5 day [16] of 5600 nM, an IC50 at 5 day [17] of 3900 nM and an IC50 at 5 day [18] of 4400 nM. It also gave an IC50 at 5 day [19] of 4000 nM, an IC50 at 5 day [20] of 1100 nM and an IC50 at 5 day [21] of 6500 nM. For the same compound, the IC50 at 5 day [22] was 4600 nM, the IC50 at 5 day [23] was 1700 nM and the IC50 at 5 day [24] was 5300 nM. For the same compound, the IC50 at 5 day [25] was 200 nM, the IC50 at 5 day [26] was 500 nM and the IC50 at 5 day [27] was 700 nM. The IC50 at 5 day [28] was 500 nM, the IC50 at 5 day [29] was 300 nM and the IC50 at 5 day [30] was 600 nM.
